Laboratory results from patent US10266495B2, “Phenyl quinolinone derivatives as mutant-isocitrate dehydrogenase inhibitors” (FORMA TM2, Inc., priority 2014, dated 2019).

What was measured:
[1] = biological target: IDH1-R132C recombinant protein (Homo sapiens, UniProt O75874, R132C); assay: IDH1-R132C enzymatic assay (NADPH consumption, diaphorase/resazurin readout); type: biochemical; conditions: read-out: Enzyme IDH1 R132C IC50 Range
Method: (§1) Assays were performed in a 384-well black plate. An aliquot of 250 nL of compound was incubated with 10 μL of 30 nM IDH1-R132H or 10 nM IDH1-R132C recombinant protein in assay buffer (50 mM Tris pH=7.5, 150 mM NaCl, 5 mM MgCl2, 0.1% (w/v) Bovine Serum Albumin, and 0.01% Triton X-100) in each well at 25° C. for 15 minutes. After the plate was centrifuged briefly, an aliquot of 10 μL of 2 mM α-ketoglutarate and 20 μM NADPH solution prepared in assay buffer was then added to each well and the reaction was maintained at 25° C. for 45 minutes. An aliquot of 10 μL of diaphorase solution (0.15 U/mL diaphorase and 30 μM Resazurin in assay buffer) was added to each well. […] The IC50 of a given compound was calculated by fitting the dose response curve of inhibition of NADPH consumption at a given concentration with the four parameter logistic equation.

[2] = biological target: IDH1-R132H recombinant protein (Homo sapiens, UniProt O75874, R132H); assay: IDH1-R132H enzymatic assay (NADPH consumption, diaphorase/resazurin readout); type: biochemical; conditions: read-out: Enzyme IDH1 R132H IC50 Range
Chain of IDH1-R132H recombinant protein (O75874 whole entry R132H): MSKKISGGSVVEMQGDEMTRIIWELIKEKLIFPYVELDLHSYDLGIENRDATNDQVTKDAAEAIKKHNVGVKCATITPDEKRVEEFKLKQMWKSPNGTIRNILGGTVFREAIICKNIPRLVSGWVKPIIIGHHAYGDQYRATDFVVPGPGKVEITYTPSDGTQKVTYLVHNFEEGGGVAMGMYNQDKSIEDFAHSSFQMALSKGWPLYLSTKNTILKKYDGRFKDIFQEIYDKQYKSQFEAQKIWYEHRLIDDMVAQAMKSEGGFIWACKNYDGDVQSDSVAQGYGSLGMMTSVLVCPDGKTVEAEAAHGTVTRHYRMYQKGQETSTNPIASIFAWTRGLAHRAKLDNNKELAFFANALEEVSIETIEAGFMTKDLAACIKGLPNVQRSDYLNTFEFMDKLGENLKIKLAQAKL
Method: as §1

Chain of IDH1-R132C recombinant protein (O75874 whole entry R132C): as the sequence (O75874 whole entry R132H) above, with H132C counted along it

IC50 [1] [nM]	IC50 [2] [nM]	SMILES
10 to 100	10 to 100	COc1cc(NC(C)c2cc3cc(Cl)ccc3[nH]c2=O)ccc1C#N (racemic) [Compound I-1, 4-{[1-(6-chloro-2-oxo-1,2-dihydroquinolin-3-yl)ethyl]amino}-2-methoxybenzonitrile]
100 to 1000	10 to 100	COc1cc(NC(C)c2cc3cc(Cl)c(OCc4ccccn4)cc3[nH]c2=O)ccc1C#N (centres unmarked) [Compound I-5, 4-({1-[6-chloro-2-oxo-7-(pyridin-2-ylmethoxy)-1,2-dihydroquinolin-3-yl]ethyl}amino)-2-methoxybenzonitrile]
> 1000	100 to 1000	N#Cc1ccc(NCc2cc3cc(Cl)ccc3[nH]c2=O)cc1O [Compound I-8, 4-{[(6-chloro-2-oxo-1,2-dihydroquinolin-3-yl)methyl]amino}-2-hydroxybenzonitrile]
> 1000	100 to 1000	COc1cc(NCc2cc3cc(Cl)ccc3[nH]c2=O)cc(OC)c1C#N [Compound I-9, 4-{[(6-chloro-2-oxo-1,2-dihydroquinolin-3-yl)methyl]amino}-2,6-dimethoxybenzonitrile]
> 1000	100 to 1000	N#Cc1ccc(NCc2cc3cc(Cl)ccc3[nH]c2=O)cc1OC(F)(F)F [Compound I-10, 4-{[(6-chloro-2-oxo-1,2-dihydroquinolin-3-yl)methyl]amino}-2-(trifluoromethoxy)benzonitrile]
> 1000	100 to 1000	COc1cc(NCc2cc3cc(C)ccc3[nH]c2=O)ccc1-n1cnnn1 [Compound I-16, 3-({[3-methoxy-4-(1H-1,2,3,4-tetrazol-1-yl)phenyl]amino}methyl)-6-methyl-1,2-dihydroquinolin-2-one]
100 to 1000	100 to 1000	COc1cc2[nH]c(=O)c(CNc3ccc(C#N)c(OC)c3)cc2cc1Cl [Compound I-21, 4-{[(6-chloro-7-methoxy-2-oxo-1,2-dihydroquinolin-3-yl)methyl]amino}-2-methoxybenzonitrile]
> 1000	100 to 1000	COc1cc(NCc2cc3ccc(C)cc3[nH]c2=O)ccc1-n1cnnn1 [Compound I-22, 3-({[3-methoxy-4-(1H-1,2,3,4-tetrazol-1-yl)phenyl]amino}methyl)-7-methyl-1,2-dihydroquinolin-2-one]
> 1000	10 to 100	COc1cc(NCc2cc3cc(C(C)(C)C)ccc3[nH]c2=O)ccc1C#N [Compound I-24, 4-{[(6-tert-butyl-2-oxo-1,2-dihydroquinolin-3-yl)methyl]amino}-2-methoxybenzonitrile]
> 1000	10 to 100	COc1cc(NCc2cc3cc(C(F)(F)F)ccc3[nH]c2=O)ccc1C#N [Compound I-25, 2-methoxy-4-({[2-oxo-6-(trifluoromethyl)-1,2-dihydroquinolin-3-yl]methyl}amino)benzonitrile]
> 1000	10 to 100	COc1cc2[nH]c(=O)c(CNc3ccc(C#N)c(OC)c3)cc2cc1F [Compound I-26, 4-{[(6-fluoro-7-methoxy-2-oxo-1,2-dihydroquinolin-3-yl)methyl]amino}-2-methoxybenzonitrile]
> 1000	> 1000	COc1cc(NCc2cc3cc(F)ccc3[nH]c2=O)ccc1C#N [Compound I-27, 4-{[(6-fluoro-2-oxo-1,2-dihydroquinolin-3-yl)methyl]amino}-2-methoxybenzonitrile]
> 1000	100 to 1000	COc1cc(NCc2cc3ccc(O)cc3[nH]c2=O)ccc1C#N [Compound I-30, 4-{[(7-hydroxy-2-oxo-1,2-dihydroquinolin-3-yl)methyl]amino}-2-methoxybenzonitrile]
> 1000	100 to 1000	COc1cc(NCc2cc3cc(Cl)ccc3[nH]c2=O)ccc1-n1cnnn1 [Compound I-33, 6-chloro-3-({[3-methoxy-4-(1H-1,2,3,4-tetrazol-1-yl)phenyl]amino}methyl)-1,2-dihydroquinolin-2-one]
> 1000	100 to 1000	Cc1cc(NCc2cc3cc(Cl)ccc3[nH]c2=O)ccc1C#N [Compound I-36, 4-{[(6-chloro-2-oxo-1,2-dihydroquinolin-3-yl)methyl]amino}-2-methylbenzonitrile]
> 1000	100 to 1000	Cc1nnnn1-c1ccc(NCc2cc3cc(Cl)ccc3[nH]c2=O)cc1 [Compound I-38, 6-chloro-3-({[4-(5-methyl-1H-1,2,3,4-tetrazol-1-yl)phenyl]amino}methyl)-1,2-dihydroquinolin-2-one]

IC50 [1] [nM]	IC50 [2] [nM]	SMILES
> 1000	100 to 1000	COc1cc(NCc2cc3ccccc3[nH]c2=O)ccc1C#N [Compound I-47, 2-methoxy-4-{[(2-oxo-1,2-dihydroquinolin-3-yl)methyl]amino}benzonitrile]
100 to 1000	10 to 100	COc1cc(NCc2cc3cc(Cl)c(OCc4ccccn4)cc3[nH]c2=O)ccc1C#N [Compound I-58, 4-({[6-chloro-2-oxo-7-(pyridin-2-ylmethoxy)-1,2-dihydroquinolin-3-yl]methyl}amino)-2-methoxybenzonitrile]
> 1000	100 to 1000	COc1cc(NCc2cc3cc(Cl)c(OCC(O)CN4CCOCC4)cc3[nH]c2=O)ccc1C#N (centres unmarked) [Compound I-59, 4-[({6-chloro-7-[2-hydroxy-3-(morpholin-4-yl)propoxy]-2-oxo-1,2-dihydroquinolin-3-yl}methyl)amino]-2-methoxybenzonitrile]
100 to 1000	–	COc1cc(NCc2cc3cc(Cl)c(OCCN4CCOCC4)cc3[nH]c2=O)ccc1C#N [Compound I-60, 4-[({6-chloro-7-[2-(morpholin-4-yl)ethoxy]-2-oxo-1,2-dihydroquinolin-3-yl}methyl)amino]-2-methoxybenzonitrile]
> 1000	10 to 100	COc1cc(NCc2cc3cc(Cl)c(OCCN(C)C)cc3[nH]c2=O)ccc1C#N [Compound I-61, 4-[({6-chloro-7-[2-(dimethylamino)ethoxy]-2-oxo-1,2-dihydroquinolin-3-yl}methyl)amino]-2-methoxybenzonitrile]
> 1000	10 to 100	COc1cc(NCc2cc3cc(Cl)c(OCc4cccnc4)cc3[nH]c2=O)ccc1C#N [Compound I-62, 4-({[6-chloro-2-oxo-7-(pyridin-3-ylmethoxy)-1,2-dihydroquinolin-3-yl]methyl}amino)-2-methoxybenzonitrile]
> 1000	10 to 100	COc1cc(NCc2cc3cc(Cl)c(OCC4CCOCC4)cc3[nH]c2=O)ccc1C#N [Compound I-63, 4-({[6-chloro-7-(oxan-4-ylmethoxy)-2-oxo-1,2-dihydroquinolin-3-yl]methyl}amino)-2-methoxybenzonitrile]
100 to 1000	10 to 100	COc1cc(NCc2cc3cc(Cl)c(OCCN4CCN(S(C)(=O)=O)CC4)cc3[nH]c2=O)ccc1C#N [Compound I-64, 4-[({6-chloro-7-[2-(4-methanesulfonylpiperazin-1-yl)ethoxy]-2-oxo-1,2-dihydroquinolin-3-yl}methyl)amino]-2-methoxybenzonitrile]
> 1000	10 to 100	COc1cc(NCc2cc3cc(Cl)c(OC[C@H]4CCOC4)cc3[nH]c2=O)ccc1C#N [Compound I-65, 4-[({6-chloro-2-oxo-7-[(3S)-oxolan-3-ylmethoxy]-1,2-dihydroquinolin-3-yl}methyl)amino]-2-methoxybenzonitrile]
> 1000	10 to 100	COc1cc(NCc2cc3cc(Cl)c(OC4CCN(C)CC4)cc3[nH]c2=O)ccc1C#N [Compound I-66, 4-[({6-chloro-7-[(1-methylpiperidin-4-yl)oxy]-2-oxo-1,2-dihydroquinolin-3-yl}methyl)amino]-2-methoxybenzonitrile]
> 1000	10 to 100	COc1cc(NCc2cc3cc(Cl)c(OCC(=O)N(C)C)cc3[nH]c2=O)ccc1C#N [Compound I-67, 2-[(6-chloro-3-{[(4-cyano-3-methoxyphenyl)amino]methyl}-2-oxo-1,2-dihydroquinolin-7-yl)oxy]-N,N-dimethylacetamide]
100 to 1000	10 to 100	COc1cc(NCc2cc3cc(Cl)c(OCC(N)=O)cc3[nH]c2=O)ccc1C#N [Compound I-68, 2-[(6-chloro-3-{[(4-cyano-3-methoxyphenyl)amino]methyl}-2-oxo-1,2-dihydroquinolin-7-yl)oxy]acetamide]
> 1000	10 to 100	COc1cc(NCc2cc3cc(Cl)c(OCC(=O)N4CCOCC4)cc3[nH]c2=O)ccc1C#N [Compound I-69, 4-[({6-chloro-7-[2-(morpholin-4-yl)-2-oxoethoxy]-2-oxo-1,2-dihydroquinolin-3-yl}methyl)amino]-2-methoxybenzonitrile]
100 to 1000	10 to 100	COc1cc(NCc2cc3cc(Cl)c(OCc4cc(C)n(C)n4)cc3[nH]c2=O)ccc1C#N [Compound I-70, 4-[({6-chloro-7-[(1,5-dimethyl-1H-pyrazol-3-yl)methoxy]-2-oxo-1,2-dihydroquinolin-3-yl}methyl)amino]-2-methoxybenzonitrile]
> 1000	10 to 100	COc1cc(NCc2cc3cc(Cl)c(OCc4ccccc4)cc3[nH]c2=O)ccc1C#N [Compound I-71, 4-({[7-(benzyloxy)-6-chloro-2-oxo-1,2-dihydroquinolin-3-yl]methyl}amino)-2-methoxybenzonitrile]
–	100 to 1000	COc1cc(NCc2cc3cc(Cl)cc(O)c3[nH]c2=O)ccc1C#N [Compound I-96, 4-{[(6-chloro-8-hydroxy-2-oxo-1,2-dihydroquinolin-3-yl)methyl]amino}-2-methoxybenzonitrile]
